Assay results from ChEMBL document CHEMBL4321854, “Discovery of a First-in-Class Mitogen-Activated Protein Kinase Kinase 1/2 Degrader” (J Med Chem, 2019).
Calls of active or inactive are those of the source. No cut-off for these calls is given here.

Assays:
[1] = target: Protein cereblon/Dual specificity mitogen-activated protein kinase kinase 2 (Homo sapiens) (UniProt P36507+Q96SW2); assay: Protac activity against CRBN/MEK2 in human HT-29 cells harboring BRAF V600E variant assessed as degradation of MEK2 at 0.3 to 3 uM after 24 hrs by Western blot analysis; assay type: cell-based
Protein cereblon/Dual specificity mitogen-activated protein kinase kinase 2 (Homo sapiens), sequence (P36507 whole entry, looked up): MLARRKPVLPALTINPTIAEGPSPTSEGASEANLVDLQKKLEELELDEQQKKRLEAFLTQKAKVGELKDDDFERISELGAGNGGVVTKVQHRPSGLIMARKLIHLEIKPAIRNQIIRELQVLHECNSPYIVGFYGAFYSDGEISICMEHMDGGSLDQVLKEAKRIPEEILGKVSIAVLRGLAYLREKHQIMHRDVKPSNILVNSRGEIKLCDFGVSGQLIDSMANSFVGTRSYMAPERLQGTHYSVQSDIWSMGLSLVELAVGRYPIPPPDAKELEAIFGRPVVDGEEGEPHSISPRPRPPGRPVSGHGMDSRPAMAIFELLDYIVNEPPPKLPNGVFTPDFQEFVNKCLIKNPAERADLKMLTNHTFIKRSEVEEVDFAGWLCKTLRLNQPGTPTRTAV
Protein cereblon/Dual specificity mitogen-activated protein kinase kinase 2 (Homo sapiens), sequence (Q96SW2 whole entry, looked up): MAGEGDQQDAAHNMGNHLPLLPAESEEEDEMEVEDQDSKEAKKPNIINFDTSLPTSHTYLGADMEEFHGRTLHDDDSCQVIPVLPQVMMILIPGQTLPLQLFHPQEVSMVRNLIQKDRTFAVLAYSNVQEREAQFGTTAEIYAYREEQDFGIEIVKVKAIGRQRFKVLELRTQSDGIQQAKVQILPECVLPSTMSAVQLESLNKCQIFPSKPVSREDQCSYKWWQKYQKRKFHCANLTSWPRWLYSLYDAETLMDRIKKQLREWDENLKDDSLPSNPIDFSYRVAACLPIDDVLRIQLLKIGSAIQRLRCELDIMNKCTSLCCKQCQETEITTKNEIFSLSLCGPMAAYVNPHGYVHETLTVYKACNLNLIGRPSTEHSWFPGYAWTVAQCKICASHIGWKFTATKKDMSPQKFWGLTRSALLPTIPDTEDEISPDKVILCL

[2] = target: Protein cereblon/Dual specificity mitogen-activated protein kinase kinase 1 (Homo sapiens) (UniProt Q02750+Q96SW2); assay: Protac activity against CRBN/MEK1 in human HT-29 cells harboring BRAF V600E variant assessed as degradation of MEK1 at 0.3 to 3 uM after 24 hrs by Western blot analysis; assay type: cell-based
Protein cereblon/Dual specificity mitogen-activated protein kinase kinase 1 (Homo sapiens), sequence (Q02750 whole entry, looked up): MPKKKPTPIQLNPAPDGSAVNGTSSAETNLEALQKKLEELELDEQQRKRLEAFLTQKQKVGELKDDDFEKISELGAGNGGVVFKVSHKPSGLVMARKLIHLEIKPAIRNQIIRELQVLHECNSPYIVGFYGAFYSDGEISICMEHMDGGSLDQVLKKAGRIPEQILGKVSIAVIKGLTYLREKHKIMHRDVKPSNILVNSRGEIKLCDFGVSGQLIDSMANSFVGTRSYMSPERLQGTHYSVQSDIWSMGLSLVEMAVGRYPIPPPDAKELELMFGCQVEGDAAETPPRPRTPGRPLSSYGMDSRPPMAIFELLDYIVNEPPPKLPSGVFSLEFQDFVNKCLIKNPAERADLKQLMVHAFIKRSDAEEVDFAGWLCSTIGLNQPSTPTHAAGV
Protein cereblon/Dual specificity mitogen-activated protein kinase kinase 1 (Homo sapiens), sequence (Q96SW2 whole entry, looked up): as the sequence (Q96SW2 whole entry, looked up) above

[3] = target: T1, von Hippel-Lindau disease tumor suppressor/Dual specificity mitogen-activated protein kinase kinase 2 (Homo sapiens) (UniProt P36507+P40337); assay: Protac activity against VHL/MEK2 in human HT-29 cells harboring BRAF V600E variant assessed as degradation of MEK2 at 0.3 to 3 uM after 24 hrs by Western blot analysis; assay type: cell-based
T1 sequence (P36507 whole entry, looked up): as the sequence (P36507 whole entry, looked up) above
T1 sequence (P40337 whole entry, looked up): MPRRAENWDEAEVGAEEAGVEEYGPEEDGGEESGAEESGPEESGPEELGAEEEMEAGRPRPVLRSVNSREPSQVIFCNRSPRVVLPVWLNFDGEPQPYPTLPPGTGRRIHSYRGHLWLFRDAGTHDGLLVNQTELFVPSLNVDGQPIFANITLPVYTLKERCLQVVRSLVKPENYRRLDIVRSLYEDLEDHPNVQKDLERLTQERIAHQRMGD

[4] = target: T2, von Hippel-Lindau disease tumor suppressor/Dual specificity mitogen-activated protein kinase kinase 1 (Homo sapiens) (UniProt Q02750+P40337); assay: Protac activity against VHL/MEK1 in human HT-29 cells harboring BRAF V600E variant assessed as degradation of MEK1 at 0.3 to 3 uM after 24 hrs by Western blot analysis; assay type: cell-based
T2 sequence (P40337 whole entry, looked up): as above
T2 sequence (Q02750 whole entry, looked up): as the sequence (Q02750 whole entry, looked up) above

[5] = tested on: HT-29; assay: Inhibition of colony formation in human HT-29 cells at 10 to 100 nM supplemented with fresh medium containing compound every 3 days for 14 days by crystal violet staining based assay; assay type: functional, cell-based
[6] = target: Dual specificity mitogen-activated protein kinase kinase 1 (Homo sapiens, UniProt Q02750); assay: Inhibition of recombinant full length human His-tagged MEK1 expressed in baculovirus expression system using ERK K52R dead variant as substrate preincubated for 20 mins followed by incubation with 33P-ATP addition for 2 hrs by hotspot kinase assay
Dual specificity mitogen-activated protein kinase kinase 1, sequence (Q02750 whole entry): as the sequence (Q02750 whole entry, looked up) above

[7] = tested on: COLO 205; assay: Antiproliferative activity against human COLO205 cells assessed as reduction in cell growth after 3 days by WST8 assay; assay type: functional
[8] = tested on: UACC-257; assay: Antiproliferative activity against human UACC257 cells assessed as reduction in cell growth after 3 days by MTT assay; assay type: functional
[9] = tested on: HT-29; assay: Antiproliferative activity against human HT-29 cells assessed as reduction in cell growth after 3 days by MTT assay; assay type: functional
[10] = target: T1, von Hippel-Lindau disease tumor suppressor/Dual specificity mitogen-activated protein kinase kinase 2 (Homo sapiens); assay: Protac activity against VHL/MEK2 in human HT-29 cells harboring with BRAF V600E variant assessed as degradation of MEK2 by measuring MEK2 protein level up to 1 uM after 24 hrs by Western blot analysis; assay type: cell-based
[11] = target: T1, von Hippel-Lindau disease tumor suppressor/Dual specificity mitogen-activated protein kinase kinase 2 (Homo sapiens); assay: Protac activity against VHL/MEK2 in human SK-MEL-28 cells harboring with BRAF V600E variant assessed as degradation of MEK2 by measuring MEK2 protein level up to 1 uM after 24 hrs by Western blot analysis; assay type: cell-based
[12] = tested on: SK-MEL-28; assay: Antiproliferative activity against human SK-MEL-28 cells assessed as reduction in cell growth after 3 days by MTT assay; assay type: functional
[13] = target: T2, von Hippel-Lindau disease tumor suppressor/Dual specificity mitogen-activated protein kinase kinase 1 (Homo sapiens); assay: Protac activity against VHL/MEK1 in human HT-29 cells harboring with BRAF V600E variant assessed as degradation of MEK1 by measuring reduction in MEK1 protein level at 0.1 uM after 10 hrs by LC-MS based Volcano plot analysis; assay type: cell-based
[14] = target: T1, von Hippel-Lindau disease tumor suppressor/Dual specificity mitogen-activated protein kinase kinase 2 (Homo sapiens); assay: Protac activity against VHL/MEK2 in human HT-29 cells harboring with BRAF V600E variant assessed as degradation of MEK2 by measuring reduction in MEK2 protein level at 0.1 uM after 10 hrs by LC-MS based Volcano plot analysis; assay type: cell-based
[15] = target: Dual specificity mitogen-activated protein kinase kinase 2 (Homo sapiens, UniProt P36507); assay: Inhibition of recombinant full length human His-tagged MEK2 expressed in baculovirus expression system using ERK K52R dead variant as substrate preincubated for 20 mins followed by incubation with 33P-ATP for 2 hrs by hotspot kinase assay
Dual specificity mitogen-activated protein kinase kinase 2, sequence (P36507 whole entry): as the sequence (P36507 whole entry, looked up) above

[16] = tested on: SK-MEL-28; assay: Inhibition of colony formation in human SK-MEL-28 cells at 10 to 100 nM supplemented with fresh medium containing compound every 3 days for 14 days by crystal violet staining based assay; assay type: functional, cell-based

For `O=C1CCC(N2C(=O)c3cccc(NCCOCCNCCCONC(=O)c4ccc(F)c(F)c4Nc4ccc(I)cc4F)c3C2=O)C(=O)N1` (stereo not given), which Activity [1] is on record?
Its Activity is “inactive”.

And the Activity [2]?
The Activity was “inactive”.

With `Cc1ncsc1-c1ccc(CNC(=O)[C@@H]2C[C@@H](O)CN2C(=O)[C@@H](NC(=O)CCCCCCNCCCONC(=O)c2ccc(F)c(F)c2Nc2ccc(I)cc2F)C(C)(C)C)cc1` as the compound, how does the Activity [3] read?
Its Activity is “Active”.

And the Activity [4]?
Its Activity is “Active”.

For `O=C1CCC(N2C(=O)c3cccc(NCCNCCCONC(=O)c4ccc(F)c(F)c4Nc4ccc(I)cc4F)c3C2=O)C(=O)N1` (stereo not given), which Activity [1] is on record?
The Activity was “inactive”.

What about the Activity [2] of the same compound?
Its Activity is “inactive”.

With `Cc1ncsc1-c1ccc(CNC(=O)[C@@H]2C[C@@H](O)CN2C(=O)[C@@H](NC(=O)COCCOCCOCCNCCCONC(=O)c2ccc(F)c(F)c2Nc2ccc(I)cc2F)C(C)(C)C)cc1` as the compound, how does the Activity [3] read?
Its Activity is “Active”.

And the Activity [4]?
Its Activity is “Active”.

What does the source list for `Cc1ncsc1-c1ccc([C@H](C)NC(=O)[C@H]2C[C@H](O)CN2C(=O)[C@@H](NC(=O)CCCCCCCCCCNCCCONC(=O)c2ccc(F)c(F)c2Nc2ccc(I)cc2F)C(C)(C)C)cc1`?
inhibition [5]: inactive; IC50 [6]: 1600 nM; GI50 [7]: inactive; GI50 [8]: inactive; GI50 [9]: inactive; Activity [10]: inactive; Activity [11]: inactive; GI50 [12]: inactive; Activity [13]: inactive; Activity [14]: inactive; IC50 [15]: 1500 nM; inhibition [16]: inactive

How did the Activity [3] turn out when `Cc1ncsc1-c1ccc(CNC(=O)[C@@H]2C[C@@H](O)CN2C(=O)[C@@H](NC(=O)CCCCCCCCCCNCCCONC(=O)c2ccc(F)c(F)c2Nc2ccc(I)cc2F)C(C)(C)C)cc1` was run?
The Activity was “Active”.

And the Activity [4]?
Its Activity is “Active”.

Which results are given for `O=C(NOC[C@H](O)CO)c1ccc(F)c(F)c1Nc1ccc(I)cc1F` [MIRDAMETINIB]?
inhibition [5]: Active; GI50 ([7]; COLO 205, 72 h): 0.2 to 4.2 nM; GI50 ([8]; UACC-257, 72 h): 0.2 to 4.2 nM; GI50 ([9]; HT-29, 72 h): 3.1 nM; Activity [10]: inactive; Activity [11]: inactive; GI50 ([12]; SK-MEL-28, 72 h): 2.9 nM; inhibition [16]: Active
